Data reported in patent publication US7291627B2, “Dihydroimidazo[5.1-a]-beta-carboline derivatives, method for their preparation, and their application as a drug” (MACEF, priority 2001, dated 2007).

System: JA 657 chicks
Experiment: Chick sleep/sedation test (IM injection, 90 minute observation)
Format: in vivo
Conditions: for Sed (sedation time as % of the period) / TA (time to torpor between injection and first stage of sleep) / TS (duration of the first sleep) / Tsed (total sedation time over the period): 90 min observation; for TS (mins) Placebo diff'ce: extension of first sleep compared with test controls
Experimental: The dihydroimidazo[5,1-a]-β-carboline derivatives of the invention, in particular those in the form of the methyl sulfonate, (soluble), were tested in chicks, and certain compounds that were active in the chick were administered in single doses to six Beagle dogs of both sexes for a polysomnographic study of at least 4 hours duration.
JA 657 chicks from Couvoir Gauguet, 44 Le Pin, were accustomed for at least 6 days to an alternating program of light and darkness with 12 hours of daylight and 12 hours of darkness at a regulated temperature of 25±2° C. They were fed ad libitum and were placed under test compounds in a vivarium in groups of 3 individuals with a mean weight of 100±10 g on the day of the test. At that age in this species, there is no effective meningeal (hemato-encephalic) barrier. The test products were injected in 3 doses (1, 3 and 10 mg/kg) intramuscularly (IM) in solution or in an aqueous suspension (1 drop of Tween 80 per ml), each to two batches of 3 chicks which were observed over 90 minutes. For each test series (18 vivaria), there was at least one batch of negative control chicks receiving the same volume (0.2 ml IM) of water for injectable preparations.
During the 90 minute observation period, the chicks were strongly stimulated every 15 minutes by presenting a full feeding trough, and each 5 minute period was given a grade from among the following 5 states, corresponding to the state of alertness over that period:
Mobile, sitting alert, drowsy, asleep, sleep-like state. The parameters studied were the time to torpor (TA) passed between injection and the first stage of sleep, the duration of the first sleep (TS) and the total sedation time over the period (Tsed), expressed in minutes and as a % of the period (Sed).
To compare the results of tests carried out at different dates, the extension of the duration of the first sleep TS compared with the test controls was recorded.

Row | SMILES | Sed (sedation time as % of the period) (Dose: 1 mg/kg) | TA (time to torpor between injection and first stage of sleep) (Dose: 1 mg/kg) | TS (duration of the first sleep) (Dose: 1 mg/kg) | Tsed (total sedation time over the period) (Dose: 1 mg/kg) | TS (mins) Placebo diff'ce (Dose: 1 mg/kg) | Sed (sedation time as % of the period) (Dose: 3 mg/kg) | TA (time to torpor between injection and first stage of sleep) (Dose: 3 mg/kg) | TS (duration of the first sleep) (Dose: 3 mg/kg) | Tsed (total sedation time over the period) (Dose: 3 mg/kg) | TS (mins) Placebo diff'ce (Dose: 3 mg/kg) | Sed (sedation time as % of the period) (Dose: 10 mg/kg) | TA (time to torpor between injection and first stage of sleep) (Dose: 10 mg/kg) | TS (duration of the first sleep) (Dose: 10 mg/kg) | Tsed (total sedation time over the period) (Dose: 10 mg/kg) | TS (mins) Placebo diff'ce (Dose: 10 mg/kg)
1 | COc1ccc2[nH]c3c(c2c1)CCn1c(C)nc(-c2ccccc2)c1-3 [Example 4, 8-methoxy-3-methyl-1-phenyl-5,6-dihydro-imidazo[5,1-a]-β-carboline] | 58.9% | 16.5 min | 38 min | 53.01 min | 34 min | 72.8% | 14 min | 22.5 min | 65.5 min | 18.5 min | 90.6% | 8.5 min | 81.5 min | 81.5 min | 76.5 min
2 | CS(=O)(=O)O.Cc1ncc2n1CCc1c-2[nH]c2ccccc12 [Example 12, 3-methyl-5,6-dihydroimidazo[5,1-a]-β-carboline methane sulfonate] | 51.7% | 10 min | 39.5 min | 46.5 min | 39 min | 63.9% | 3.5 min | 42 min | 57.5 min | 41.7 min | 98.9% | 1 min | 89 min | 89 min | 88.7 min
3 | CS(=O)(=O)O.Cc1ccc2c(c1)c1c(n2C)-c2cnc(C)n2CC1 [Example 19, 3,8,11-trimethyl-5,6-dihydroimidazo[5,1-a]-β-carboline methane sulfonate] | 49.4% | 4 min | 17.5 min | 44.5 min | 11 min | 62.8% | 3.5 min | 46.5 min | 56.5 min | 38.5 min | 75.0% | 3.5 min | 60 min | 67.5 min | 52 min
4 | CS(=O)(=O)O.Cc1ncc2n1CCc1c-2[nH]c2ccc(O)cc12 [Example 11, 8-hydroxy-3-methyl-5,6-dihydroimidazo[5,1-a]-β-carboline methane sulfonate] | 29.4% | 40 min | 0 min | 26.5 min | -0.3 min | 38.3% | 15 min | 7 min | 34.5 min | 6.7 min | 20.6% | 6 min | 9.5 min | 18.5 min | 9 min
5 | CCn1c2c(c3cc(C)ccc31)CCn1c-2cnc1C.CS(=O)(=O)O [Example 20, 11-ethyl-3,8-dimethyl-5,6-dihydroimidazo-[5,1-a]-β-carboline methane sulfonate] | 80% | 2 min | 65.5 min | 72 min | 57 min | 79.4% | 1.5 min | 51.5 min | 71.5 min | 43.5 min | 97.2% | 1.5 min | 87.5 min | 87.5 min | 81.5 min
6 | COc1ccc2c(c1)c1c(n2C)-c2cnc(C)n2CC1.CS(=O)(=O)O [Example 9, 8-methoxy-3,11-dimethyl-5,6-dihydroimidazo-[5,1-a]-β-carboline methane sulfonate] | 27.2% | 22 min | 3 min | 24.5 min | 2.8 min | 29.4% | 17.5 min | 13.5 min | 26.5 min | 13 min | 42.8% | 16.5 min | 15.5 min | 38.5 min | 15 min
